Several values for one entry are separate records, joined by “and”; a condition that tells them apart may be missing. Equal values may be shown once. Toxic doses and inconclusive results are not listed.
System: L1210 leukemia ip in BDF1 mice, survival T/C
Test: NCI In Vivo Anticancer Drug Screen. Data for tumor model L1210 Leukemia (intraperitoneal) in B6D2F1 (BDF1) mice
Conditions: endpoint: mean survival time, higher = longer survival
In short: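 Antitumor effect is assessed in tumor-bearing animals. Survival in the compound arm is compared with a vehicle-dosed control arm and expressed as their quotient.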

[1] = dose: 100.0 mg/kg/injection, schedule: Q04DX002 (ip), vehicle: saline
[2] = dose: 200.0 mg/kg/injection, schedule: Q04DX002 (ip), vehicle: saline
[3] = dose: 100.0 mg/kg/injection, schedule: Q04DX003 (ip), vehicle: saline with Tween-80
[4] = dose: 200.0 mg/kg/injection, schedule: Q04DX003 (ip), vehicle: saline with Tween-80
[5] = dose: 400.0 mg/kg/injection, schedule: Q04DX003 (ip), vehicle: saline with Tween-80
[6] = dose: 100.0 mg/kg/injection, schedule: Q04DX003 (ip), vehicle: Klucel (hydroxypropylcellulose) (HPC)
[7] = dose: 200.0 mg/kg/injection, schedule: Q04DX003 (ip), vehicle: Klucel (hydroxypropylcellulose) (HPC)
[8] = dose: 400.0 mg/kg/injection, schedule: Q04DX003 (ip), vehicle: Klucel (hydroxypropylcellulose) (HPC)
[9] = dose: 100.0 mg/kg/injection, schedule: Q01DX009 (ip), vehicle: Klucel (hydroxypropylcellulose) (HPC)
[10] = dose: 200.0 mg/kg/injection, schedule: Q01DX009 (ip), vehicle: Klucel (hydroxypropylcellulose) (HPC)
[11] = dose: 400.0 mg/kg/injection, schedule: Q01DX009 (ip), vehicle: Klucel (hydroxypropylcellulose) (HPC)
[12] = dose: 100.0 mg/kg/injection, schedule: Q01DX009 (ip), vehicle: saline with Tween-80
[13] = dose: 200.0 mg/kg/injection, schedule: Q01DX009 (ip), vehicle: saline with Tween-80
[14] = dose: 100.0 mg/kg/injection, schedule: Q01DX001 (ip), vehicle: saline
[15] = dose: 200.0 mg/kg/injection, schedule: Q01DX001 (ip), vehicle: saline
[16] = dose: 400.0 mg/kg/injection, schedule: Q01DX001 (ip), vehicle: saline

`C=C/C=C\N(CC)CC` was tested, and the T/C (dose: 6.25 mg/kg/injection, schedule: Q01DX009 (ip), vehicle: water) was 98 % of control, the T/C (dose: 12.5 mg/kg/injection, schedule: Q01DX009 (ip), vehicle: water) was 97 % of control and the T/C (dose: 25.0 mg/kg/injection, schedule: Q01DX009 (ip), vehicle: water) was 104 % of control. The T/C (dose: 25.0 mg/kg/injection, schedule: Q04DX003 (ip), vehicle: water) was 95 % of control, the T/C (dose: 50.0 mg/kg/injection, schedule: Q01DX009 (ip), vehicle: water) was 98 % of control and the T/C (dose: 50.0 mg/kg/injection, schedule: Q04DX003 (ip), vehicle: water) was 88 % of control. The T/C (dose: 100.0 mg/kg/injection, schedule: Q04DX003 (ip), vehicle: water) was 100 % of control.

For `Cc1nc(N)nn1C`, the T/C [1] was 97 % of control, the T/C [2] was 110 % of control and the T/C (dose: 400.0 mg/kg/injection, schedule: Q04DX002 (ip), vehicle: saline) was 100 % of control.

`COC(=O)CNC(=O)C(C)NC(=O)OCc1ccccc1` (configuration not stated) was tested, and the T/C [3] was 102 % of control, the T/C [4] was 98 % of control and the T/C [5] was 100 % of control.

In the case of `N=c1c2c(C(N)=O)cn(C3OC(CO)C(O)C3O)c2ncn1O` (configuration not stated), the T/C (dose: 2.5 mg/kg/injection, schedule: Q01DX001 (ip), vehicle: saline with Tween-80) is reported as 122 % of control, the T/C (dose: 5.0 mg/kg/injection, schedule: Q01DX001 (ip), vehicle: saline with Tween-80) is reported as 117 % of control and the T/C (dose: 10.0 mg/kg/injection, schedule: Q01DX001 (ip), vehicle: saline with Tween-80) is reported as 123 % of control. The T/C (dose: 10.0 mg/kg/injection, schedule: Q01DX001 (ip), vehicle: saline) was 153 % of control and the T/C (dose: 20.0 mg/kg/injection, schedule: Q01DX001 (ip), vehicle: saline) was 180 % of control.

For `CC(CC(O)c1ccccc1)c1ccccc1` (configuration not stated), the T/C (dose: 100.0 mg/kg/injection, schedule: Q01DX009 (ip), vehicle: saline) was 102 % of control, the T/C [6] was 98 % of control and the T/C (dose: 200.0 mg/kg/injection, schedule: Q01DX009 (ip), vehicle: saline) was 97 % of control. The T/C [7] was 104 % of control, the T/C (dose: 400.0 mg/kg/injection, schedule: Q01DX009 (ip), vehicle: saline) was 98 % of control and the T/C [8] was 104 % of control.

For `BrCC(Br)=C(Br)Br`, the T/C (dose: 6.0 mg/kg/injection, schedule: Q04DX003 (ip), vehicle: Klucel (hydroxypropylcellulose) (HPC)) was 105 % of control, the T/C (dose: 12.0 mg/kg/injection, schedule: Q01DX001 (ip), vehicle: Klucel (hydroxypropylcellulose) (HPC)) was 88 % of control and the T/C (dose: 12.0 mg/kg/injection, schedule: Q04DX003 (ip), vehicle: Klucel (hydroxypropylcellulose) (HPC)) was 91 % of control. The T/C (dose: 25.0 mg/kg/injection, schedule: Q01DX001 (ip), vehicle: Klucel (hydroxypropylcellulose) (HPC)) was 97 % of control and 101 % of control, the T/C (dose: 25.0 mg/kg/injection, schedule: Q04DX003 (ip), vehicle: Klucel (hydroxypropylcellulose) (HPC)) was 91 % of control and the T/C (dose: 50.0 mg/kg/injection, schedule: Q01DX001 (ip), vehicle: Klucel (hydroxypropylcellulose) (HPC)) was 93 % of control and 90 % of control. For the same molecule, the T/C (dose: 100.0 mg/kg/injection, schedule: Q01DX001 (ip), vehicle: Klucel (hydroxypropylcellulose) (HPC)) was 97 % of control.

For `Cc1ccc(C)n1-c1ccccc1C(=O)O`, the T/C [9] was 95 % of control, the T/C [6] was 93 % of control and the T/C [10] was 107 % of control. The T/C [7] was 106 % of control, the T/C [11] was 101 % of control and the T/C [8] was 101 % of control.

`Cc1cccc(C)c1N(COCC(C)C)C(=O)CCl` was tested, and the T/C [12] was 100 % of control and the T/C [13] was 100 % of control.

In the case of `Cc1[nH]nc(-c2cccnc2)c1N=NN(C)C`, the T/C (dose: 75.0 mg/kg/injection, schedule: Q01DX001 (ip), vehicle: saline) is reported as 110 % of control, the T/C (dose: 150.0 mg/kg/injection, schedule: Q01DX001 (ip), vehicle: saline) is reported as 106 % of control and the T/C (dose: 300.0 mg/kg/injection, schedule: Q01DX001 (ip), vehicle: saline) is reported as 111 % of control.

In the case of `C=CCN(CC=C)C(=S)Nc1cccc(Cl)c1`, the T/C (dose: 100.0 mg/kg/injection, schedule: Q01DX001 (ip), vehicle: other) is reported as 103 % of control, the T/C (dose: 200.0 mg/kg/injection, schedule: Q01DX001 (ip), vehicle: other) is reported as 100 % of control and the T/C (dose: 400.0 mg/kg/injection, schedule: Q01DX001 (ip), vehicle: other) is reported as 100 % of control.

For `CN(N=O)C(=O)NNC(=O)N(C)N=O`, the T/C (dose: 6.25 mg/kg/injection, schedule: Q01DX Z (ip), vehicle: carboxymethylcellulose (CMC)) was 103 % of control, the T/C (dose: 20.0 mg/kg/injection, schedule: Q01DX Z (ip), vehicle: carboxymethylcellulose (CMC)) was 152 % of control and the T/C (dose: 50.0 mg/kg/injection, schedule: Q01DX Z (ip), vehicle: carboxymethylcellulose (CMC)) was 89 % of control.

`O=[As](O)(O)CCCc1ccccc1` was tested, and the T/C (dose: 6.25 mg/kg/injection, schedule: Q01DX009 (ip), vehicle: Klucel (hydroxypropylcellulose) (HPC)) was 108 % of control and the T/C (dose: 12.5 mg/kg/injection, schedule: Q01DX009 (ip), vehicle: Klucel (hydroxypropylcellulose) (HPC)) was 108 % of control.

With `C[CH2][Sn]([CH2]c1ccccc1)([c]1ccccc1)[c]1ccccc1` the T/C [6] was 95 % of control, the T/C [7] was 101 % of control and the T/C [8] was 93 % of control.

With `S=P(NC1CCCCC1)(NC1CCCCC1)NC1CCCCC1` the T/C [14] was 95 % of control, the T/C [3] was 101 % of control and the T/C [15] was 95 % of control. For the same molecule, the T/C [4] was 97 % of control, the T/C [16] was 90 % of control and the T/C [5] was 97 % of control.

For `Cc1ccc(S(=O)(=O)N/N=C2\CCCC3CC23C)cc1` (configuration not stated), the T/C (dose: 75.0 mg/kg/injection, schedule: Q04DX002 (ip), vehicle: Klucel (hydroxypropylcellulose) (HPC)) was 93 % of control, the T/C (dose: 150.0 mg/kg/injection, schedule: Q04DX002 (ip), vehicle: Klucel (hydroxypropylcellulose) (HPC)) was 93 % of control and the T/C (dose: 300.0 mg/kg/injection, schedule: Q04DX002 (ip), vehicle: Klucel (hydroxypropylcellulose) (HPC)) was 104 % of control.

For `Nc1nc(=O)n(CCCOc2ccc(NC(=O)Nc3cccc(S(=O)(=O)F)c3)cc2)cc1-c1ccc(Cl)c(Cl)c1`, the T/C (dose: 50.0 mg/kg/injection, schedule: Q01DX001 (ip), vehicle: saline with Tween-80) was 98 % of control, the T/C (dose: 100.0 mg/kg/injection, schedule: Q01DX001 (ip), vehicle: saline with Tween-80) was 98 % of control and the T/C (dose: 200.0 mg/kg/injection, schedule: Q01DX001 (ip), vehicle: saline with Tween-80) was 95 % of control.

With `CC1(C)OC(O)C(C(O)C(O)C(O)C(=O)O)O1` (configuration not stated) the T/C [1] was 98 % of control and the T/C [2] was 109 % of control.

`CC(C)Nc1c(C(=O)c2ccccc2)cn(C(C)C)c1-c1ccccc1` was tested, and the T/C (dose: 50.0 mg/kg/injection, schedule: Q01DX009 (ip), vehicle: saline with Tween-80) was 94 % of control, the T/C [12] was 91 % of control and the T/C [13] was 88 % of control.

In the case of `CC1(C)CCC(C)(C)C2CC3CC4C(CC3CC21)C(C)(C)CCC4(C)C` (configuration not stated), the T/C [14] is reported as 89 % of control, the T/C [15] is reported as 104 % of control and the T/C [16] is reported as 97 % of control.

With `COc1ccc2nc(NCN3C(=O)c4ccccc4C3=O)sc2c1` the T/C [12] was 96 % of control, the T/C (dose: 100.0 mg/kg/injection, schedule: Q04DX003 (ip), vehicle: acetone) was 88 % of control and the T/C [13] was 95 % of control. For the same molecule, the T/C (dose: 200.0 mg/kg/injection, schedule: Q04DX003 (ip), vehicle: acetone) was 88 % of control, the T/C (dose: 400.0 mg/kg/injection, schedule: Q01DX009 (ip), vehicle: saline with Tween-80) was 93 % of control and the T/C (dose: 400.0 mg/kg/injection, schedule: Q04DX003 (ip), vehicle: acetone) was 90 % of control.

For `O=[N+]([O-])c1ccc(N/N=C/c2ccnc3ccccc23)cc1`, the T/C [9] was 93 % of control, the T/C [10] was 91 % of control and the T/C [11] was 91 % of control.

`NC(=S)N/N=C/c1cnccn1` was tested, and the T/C (dose: 13.0 mg/kg/injection, schedule: Q03HX032 (ip), vehicle: saline with Tween-80) was 98 % of control, the T/C (dose: 20.0 mg/kg/injection, schedule: Q03HX032 (ip), vehicle: saline with Tween-80) was 101 % of control and the T/C (dose: 29.0 mg/kg/injection, schedule: Q03HX032 (ip), vehicle: saline with Tween-80) was 113 % of control. For the same molecule, the T/C (dose: 44.0 mg/kg/injection, schedule: Q03HX032 (ip), vehicle: saline with Tween-80) was 115 % of control and the T/C [13] was 86 % of control.

In the case of `CCCNC(=O)Nc1ccc(Cl)c(Cl)c1`, the T/C [14] is reported as 100 % of control, the T/C [15] is reported as 93 % of control and the T/C [16] is reported as 92 % of control.

For `IC1=CC2CCC(C1)C2` (configuration not stated), the T/C (dose: 100.0 mg/kg/injection, schedule: Q01DX009 (ip), vehicle: acetone) was 109 % of control and the T/C (dose: 200.0 mg/kg/injection, schedule: Q01DX009 (ip), vehicle: acetone) was 97 % of control.

— PubChem BioAssay AID248 (DTP/NCI, 2004)
